Test results reported in US9434756B2, “Crystalline 4′-epidaunorubicin hydrochloride and use thereof” (Heraeus Precious Metals GmbH & Co. KG, priority 2009, dated 2016).

Assays:
[1] = Thermal stability / decomposition of 4′-epidaunorubicin hydrochloride crystals (thermogravimetric analysis); format: physicochemical; conditions: for temperature at which the product decomposed: crystals obtained in the example
Description: FIG. 2 is a graph showing the thermogravimetric analysis (TGA) of 4′-epidaunorubicin hydrochloride. The data were obtained using the instrument NETZSCH TG 209 (sample mass: […], range: 24.0/10.0 (K/min)/250.0, crucible: Al2O3).

[2] = Solubility of 4′-epidaunorubicin hydrochloride (stated in words, no method given); format: physicochemical

thermal stability ([1]; crystalline form): high thermal stability
temperature at which the product decomposed ([1]; listed as Example 1, hydrochloride): 191 °C
temperature at which the product decomposed ([1]; listed as Example 2, hydrochloride): 191 °C
temperature at which the product decomposed ([1]; listed as Example 3, hydrochloride): 190 °C
temperature at which the product decomposed ([1]; listed as Example 4, hydrochloride): 190 °C
solubility of amorphously precipitated material ([2]; amorphous precipitate, solvent not stated): only purely soluble
solubility in methanol ([2]; methanol, crystalline form versus amorphous form, hydrochloride): improved solubility in methanol
Structure (SMILES): COc1cccc2c1C(=O)c1c(O)c3c(c(O)c1C2=O)C[C@@](O)(C(C)=O)C[C@@H]3O[C@H]1C[C@H](N)[C@@H](O)[C@H](C)O1.Cl [4′-epidaunorubicin hydrochloride]
